Where two headings read alike, the source gives them in different places.
Assays:
[1] = system: human K-562 leukemia cells; test: Antiproliferative assay on K-562 cells (CellTiter-Blue viability readout); type: cell-based; conditions: for IC50: Homo sapiens; for increase of antiproliferative activity compared to aureothin: ratio of IC50 versus aureothin
Experimental: Cells were grown in the appropiate cell culture medium supplemented with 10 mL L^-1 ultraglutamine 1 (Cambrex 17-605E/U1), 500 µL L^-1 gentamicin sulfate (CAMBREX 17-518Z), and 10% heat inactivated fetal bovine serum (PAA A15-144) at 37°C in high density polyethylene flasks (NUNC 156340).
The test substances are dissolved in DMSO before being diluted in DMEM. […] were harvested at the logarithmic growth phase after soft trypsinization, using 0.25% trypsin in PBS containing 0.02% EDTA (Biochrom KG L2163). For each experiment approximately 10,000 cells were seeded with 0.1 mL culture medium per well of the 96-well microplates (NUNC 167008).
The cells were incubated with dilutions of the test substances for 72 hours at 37°C in a humidified atmosphere and 5% CO2.
For estimating the influence of chemical compounds on cell proliferation of K-562 we determinate the numbers of viable cells present in multiwell plates via CellTiter-Blue® assay. It uses the indicator dye resazurin to measure the metabolic capacity of cells as indicator of cell viability. Viable cells of untreated control retain the ability to reduce resazurin into resorufin, which is highly fluorescent. […] Under our experimental conditions, the signal from the CellTiter-Blue® reagent is proportional to the number of viable cells.
The GI50 and CC50 values were defined as being where the concentration-response curve intersected the 50% line, compared to untreated control. These comparisons of the different values were performed with software Magellan (TECAN).
A repeat determination has been conducted in all cases.

[2] = system: fungal strains like Candida albicans, Sporobolomyces salmonicolor, Penicillium notatum, Glomerella or several Aspergillus spp.; test: Antimicrobial / antifungal activity testing; type: cell-based; conditions: qualitative; compared with the other antimicrobial activities or with aureothin
[3] = K562, DOA derivatives, K-562 cells, 72 h incubation (assay inferred; table has no title), read-out: IC50

| Compound | IC50 ([1]; K562, read-out: IC50 antiproliferative activity against K-562 cells) [nM] | increase of antiproliferative activity compared to aureothin ([1]; K-562 cells) | IC50 ([1]; K562, 72 h) [nM] | IC50 [1, 3] [µg/mL] | effect against fungal strains [2] |
| --- | --- | --- | --- | --- | --- |
| COc1oc(CC/C(C)=C/C(C)=C/c2ccc([N+](=O)[O-])cc2)c(C)c(=O)c1C [Deoxyaureothin, deoxyaureothin, reference compound] | 5000 | 5 fold |  |  |  |
| COc1oc(CC/C(C)=C/C(C)=C/c2ccc(Br)cc2)c(C)c(=O)c1C [R = Ar-Br, p-bromo-DOA] |  |  | 1000 | 0.5 |  |
| COc1oc(CC/C(C)=C/C(C)=C/c2ccc(C#N)cc2)c(C)c(=O)c1C [R = Ar-CN, deoxyaureonitrile] |  | up to 25 fold | 1000 | 0.5 | activities comparable to aureothin |
| COc1oc(CC/C(C)=C/C(C)=C/c2ccc(Cl)cc2)c(C)c(=O)c1C [R = Ar-Cl, p-chloro-DOA] |  |  | 2000 | 0.8 |  |
| COc1oc(CC/C(C)=C/C(C)=C/c2ccc(F)cc2)c(C)c(=O)c1C [R = Ar-F, p-fluoro-DOA] |  |  | 1000 | 0.5 |  |
| COc1oc(CC/C(C)=C/C(C)=C/c2ccc(I)cc2)c(C)c(=O)c1C [R = Ar-I, p-iodo-DOA] |  |  | 1000 | 0.5 |  |
| COc1oc(CC/C(C)=C/C(C)=C/c2ccc3ccccc3c2)c(C)c(=O)c1C [R = Ar-Ph, 2-naphthoate-DOA] |  |  | 21000 | 8 |  |
